In patent publication US20080312192A1, “Diaryl Urea Derivatives in the Treatment of Protein Kinase Dependent Diseases” (priority 2003, published 2008) one finds IC50 data, which are given here for nine compounds.

pIC50: −log10 of the molar value.

This experiment addresses T1, Flt-3 (Homo sapiens, UniProt P36888).
T1 construct: amino acids 563-993 of the cytoplasmic kinase domain of human Flt-3; made in house; host or cells: Sf9 insect cells (baculovirus, vector pFbacG01)
T1 sequence (P36888 563-993): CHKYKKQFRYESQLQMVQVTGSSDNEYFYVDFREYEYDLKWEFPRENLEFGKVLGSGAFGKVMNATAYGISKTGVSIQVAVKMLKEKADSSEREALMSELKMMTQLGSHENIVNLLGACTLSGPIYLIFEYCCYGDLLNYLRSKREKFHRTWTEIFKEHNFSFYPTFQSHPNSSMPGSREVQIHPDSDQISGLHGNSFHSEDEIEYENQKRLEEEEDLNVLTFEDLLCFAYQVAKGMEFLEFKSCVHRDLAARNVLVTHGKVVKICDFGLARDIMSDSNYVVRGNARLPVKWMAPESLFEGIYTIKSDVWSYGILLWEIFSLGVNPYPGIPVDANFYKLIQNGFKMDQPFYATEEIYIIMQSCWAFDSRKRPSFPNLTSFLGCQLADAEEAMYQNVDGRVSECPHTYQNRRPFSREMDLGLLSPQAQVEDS
Nature of the experiment: Flt-3 kinase inhibition (GST-Flt-3, 33P incorporation into poly(Glu,Tyr)). Format: biochemical. An outline of the steps:
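GST-fused human Flt-3 kinase domain (aa 563-993) from Sf9 cells assayed with 3 μg/mL poly(Glu,Tyr) 4:1, 8.0 μM ATP plus [γ-33P]ATP, Mn2+/Mg2+, pH 7.6, 20 min at ambient temperature. 33P incorporation counted on PVDF; IC50 by linear regression, duplicates at four concentrations (usually 0.01-10 μM).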
`Nc1cc(Oc2ccc(NC(=O)Nc3cc(CN4CCC4)cc(C(F)(F)F)c3)cc2)ncn1` [Example 4, N-[4-(6-Amino-pyrimidin-4-yloxy)-phenyl]-N′-(3-azetidin-1-ylmethyl-5-trifluoromethyl-phenyl)-urea] showed a negative-log IC50 (pIC50) of 6.82. The same measure for `CNc1cc(Oc2ccc(NC(=O)Nc3cc(CN4CCN(C(C)C)CC4)cc(C(F)(F)F)c3)cc2)ncn1` [Example 6, N-[4-(6-Methylamino-pyrimidin-4-yloxy)-phenyl]-N′-[3-(4-isopropylpiperazin-1-ylmethyl)-5-trifluoromethyl-phenyl]-urea]: 6.40; for `CC(C)N1CCN(Cc2ccc(NC(=O)Nc3ccc(Oc4cc(N)ncn4)cc3)cc2C(F)(F)F)CC1` [Example 19, N-[4-(6-Amino-pyrimidin-4-yloxy)-phenyl]-N′-[4-(4-isopropylpiperazin-1-ylmethyl)-3-trifluoromethyl-phenyl]-urea]: 6.60. The figure for `CC(C)(C)N1CCN(Cc2ccc(NC(=O)Nc3ccc(Oc4ccnc(N)n4)cc3)cc2C(F)(F)F)CC1` [Example 50] is 6.92; for `Cc1ncn(Cc2ccc(NC(=O)Nc3ccc(Oc4ccnc(N)n4)cc3)cc2C(F)(F)F)c1C` [Example 51a.1, 1-[4-(2-Amino-pyrimidin-4-yloxy)-phenyl]-3-(4-(4,5-dimethyl-imidazol-1-ylmethyl)-3-trifluoromethyl-phenyl]-urea] it is 7.07; for `CN1CCN(Cc2ccc(NC(=O)Nc3ccc(Oc4ccnc(N)n4)cc3)cc2C(F)(F)F)CC1` [Example 52a, 1-[4-(2-amino-pyrimidin-4-yloxy)-phenyl]-3-[4-(4-methylpiperazin-1-ylmethyl)-3-trifluoromethyl-phenyl]-urea] it is 6.92. As for `CCN1CCN(Cc2ccc(NC(=O)Nc3ccc(Oc4ccnc(N)n4)cc3)cc2C(F)(F)F)CC1` [Example 52c, 1-[4-(2-Amino-pyrimidin-4-yloxy)-phenyl]-3-[4-(4-ethyl-piperazin-1-ylmethyl)-3-trifluoromethyl-phenyl]-urea], the pIC50 is 7.54. The same measure for `CNc1nccc(Oc2ccc(NC(=O)Nc3cc(N4CCN(C)CC4)cc(C(F)(F)F)c3)cc2)n1` [Example 53b, 1-[4-(2-Methylamino-pyrimidin-4-yloxy)-phenyl]-3-[3-(4-methyl-piperazin-1-yl)-5-trifluoromethyl-phenyl]-urea]: 6.92; for `CNc1nccc(Oc2ccc(NC(=O)Nc3ccc(N4CCN(C)CC4)c(C(F)(F)F)c3)cc2)n1` [Example 53d, 1-[4-(2-Methylamino-pyrimidin-4-yloxy)-phenyl]-3-[4-(4-methyl-piperazin-1-yl)-3-trifluoromethyl-phenyl]-urea]: 6.72.
